Measured values: PubChem BioAssay AID248 (DTP/NCI, 2004)
Values joined by “and” are separate entries in the source; they are usually repeats but may differ in a detail not shown here. Equal entries are not always repeated. Toxic doses and inconclusive results are not listed. No stated cut-off is given here; in the data, active means T/C of 150% or more; inactive means T/C below 125%.

Tested on: L1210 leukemia ip in BDF1 mice, survival T/C
Assay: NCI In Vivo Anticancer Drug Screen. Data for tumor model L1210 Leukemia (intraperitoneal) in B6D2F1 (BDF1) mice
Conditions: endpoint: mean survival time, higher = longer survival
In short: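 Read-out is survival time, reported as the treated-group measurement over the vehicle-control measurement.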

[1] = dose: 100.0 mg/kg/injection, schedule: Q01DX009 (ip), vehicle: saline
[2] = dose: 100.0 mg/kg/injection, schedule: Q04DX002 (ip), vehicle: Klucel (hydroxypropylcellulose) (HPC)
[3] = dose: 200.0 mg/kg/injection, schedule: Q04DX002 (ip), vehicle: Klucel (hydroxypropylcellulose) (HPC)
[4] = dose: 400.0 mg/kg/injection, schedule: Q04DX002 (ip), vehicle: Klucel (hydroxypropylcellulose) (HPC)
[5] = dose: 100.0 mg/kg/injection, schedule: Q01DX001 (ip), vehicle: saline
[6] = dose: 200.0 mg/kg/injection, schedule: Q01DX001 (ip), vehicle: saline
[7] = dose: 400.0 mg/kg/injection, schedule: Q01DX001 (ip), vehicle: saline
[8] = dose: 100.0 mg/kg/injection, schedule: Q04DX003 (ip), vehicle: saline
[9] = dose: 200.0 mg/kg/injection, schedule: Q04DX003 (ip), vehicle: saline
[10] = dose: 400.0 mg/kg/injection, schedule: Q04DX003 (ip), vehicle: saline

Measured: T/C

CC(CCC(=O)O)(c1cc(Br)c(O)c(Br)c1)c1cc(Br)c(O)c(Br)c1
inactive: [1] 93 % of control | dose: 100.0 mg/kg/injection, schedule: Q04DX003 (ip), vehicle: other 102 % of control | dose: 200.0 mg/kg/injection, schedule: Q01DX009 (ip), vehicle: saline 95 % of control | dose: 200.0 mg/kg/injection, schedule: Q04DX003 (ip), vehicle: other 102 % of control | dose: 400.0 mg/kg/injection, schedule: Q01DX009 (ip), vehicle: saline 87 % of control | dose: 400.0 mg/kg/injection, schedule: Q04DX003 (ip), vehicle: other 109 % of control

COc1ccc(NC(=O)c2ccc(Cl)cc2Cl)c(OC)c1
inactive: [2] 102 % of control | [3] 97 % of control | [4] 102 % of control

CCCCCCCCCCCCCCCCCCCCCCCCCCCCCC
inactive: dose: 100.0 mg/kg/injection, schedule: Q04DX003 (ip), vehicle: Klucel (hydroxypropylcellulose) (HPC) 93 % of control | dose: 200.0 mg/kg/injection, schedule: Q04DX003 (ip), vehicle: Klucel (hydroxypropylcellulose) (HPC) 89 % of control | dose: 400.0 mg/kg/injection, schedule: Q04DX003 (ip), vehicle: Klucel (hydroxypropylcellulose) (HPC) 89 % of control

CCOC(=O)Nc1cc2n[nH]nc2c(NC(c2ccccc2)c2ccccc2)n1
inactive: dose: 100.0 mg/kg/injection, schedule: Q04DX003 (ip), vehicle: saline with Tween-80 94 % of control | dose: 200.0 mg/kg/injection, schedule: Q04DX003 (ip), vehicle: saline with Tween-80 87 % of control | dose: 400.0 mg/kg/injection, schedule: Q04DX003 (ip), vehicle: saline with Tween-80 92 % of control

CC12CCC(=O)C=C1CCC1C2CCC2(C)C(OC(=O)CN3CC3)CCC12 (centres undefined)
inactive: dose: 100.0 mg/kg/injection, schedule: Q01DX001 (sc), vehicle: steriod suspending solution 101 % of control | dose: 200.0 mg/kg/injection, schedule: Q01DX001 (sc), vehicle: steriod suspending solution 97 % of control | dose: 400.0 mg/kg/injection, schedule: Q01DX001 (sc), vehicle: steriod suspending solution 103 % of control

CC(=O)C1CC[C@@]2(C)C(CC[C@H]3[C@@H]4CCC[C@H]([C@H](C)O)[C@@]4(C)CC[C@@H]32)C1 (some centres undefined)
inactive: dose: 100.0 mg/kg/injection, schedule: Q04DX003 (ip), vehicle: steriod suspending solution 106 % of control | dose: 200.0 mg/kg/injection, schedule: Q04DX003 (ip), vehicle: steriod suspending solution 95 % of control | dose: 400.0 mg/kg/injection, schedule: Q04DX003 (ip), vehicle: steriod suspending solution 119 % of control

COc1ccc(NC(=O)Nc2cccc(SC)c2)cc1
inactive: dose: 100.0 mg/kg/injection, schedule: Q01DX009 (ip), vehicle: carboxymethylcellulose (CMC) 94 % of control and 97 % of control | [2] 93 % of control | dose: 100.0 mg/kg/injection, schedule: Q04DX002 (ip), vehicle: carboxymethylcellulose (CMC) 97 % of control and 101 % of control | dose: 100.0 mg/kg/injection, schedule: Q04DX003 (ip), vehicle: carboxymethylcellulose (CMC) 94 % of control | dose: 200.0 mg/kg/injection, schedule: Q01DX009 (ip), vehicle: carboxymethylcellulose (CMC) 92 % of control and 95 % of control | [3] 93 % of control | dose: 200.0 mg/kg/injection, schedule: Q04DX002 (ip), vehicle: carboxymethylcellulose (CMC) 100 % of control and 91 % of control | dose: 200.0 mg/kg/injection, schedule: Q04DX003 (ip), vehicle: carboxymethylcellulose (CMC) 86 % of control | dose: 400.0 mg/kg/injection, schedule: Q01DX009 (ip), vehicle: carboxymethylcellulose (CMC) 94 % of control | [4] 107 % of control | dose: 400.0 mg/kg/injection, schedule: Q04DX002 (ip), vehicle: carboxymethylcellulose (CMC) 111 % of control and 91 % of control | dose: 400.0 mg/kg/injection, schedule: Q04DX003 (ip), vehicle: carboxymethylcellulose (CMC) 93 % of control

CC(=O)c1ccc(N2CCCCC2)cc1
inactive: dose: 50.0 mg/kg/injection, schedule: Q01DX001 (ip), vehicle: saline 96 % of control | [5] 94 % of control | [6] 100 % of control | [7] 94 % of control

N#Cc1cccc(NC(=O)COc2cccc(Cl)c2)c1
inactive: dose: 100.0 mg/kg/injection, schedule: Q01DX001 (ip), vehicle: Klucel (hydroxypropylcellulose) (HPC) 94 % of control | dose: 200.0 mg/kg/injection, schedule: Q01DX001 (ip), vehicle: Klucel (hydroxypropylcellulose) (HPC) 87 % of control | dose: 400.0 mg/kg/injection, schedule: Q01DX001 (ip), vehicle: Klucel (hydroxypropylcellulose) (HPC) 90 % of control

O=C(O)C1CC1c1ccc(Br)cc1 (centres undefined)
inactive: [2] 123 % of control | [3] 100 % of control

O=C(NC1(C(=O)O)CCCC1)C(F)(F)F
inactive: [8] 98 % of control | [9] 118 % of control | [10] 111 % of control

O=C1/C(=C\c2ccccc2)Cc2cc3c(cc21)OCO3
inactive: [8] 105 % of control | [9] 113 % of control | [10] 102 % of control

OC(c1ccccc1)(c1ccc(-c2ccccc2)cc1)c1cccc2ccccc12 (centres undefined)
inactive: dose: 75.0 mg/kg/injection, schedule: Q01DX001 (ip), vehicle: saline 92 % of control | dose: 150.0 mg/kg/injection, schedule: Q01DX001 (ip), vehicle: saline 92 % of control | dose: 300.0 mg/kg/injection, schedule: Q01DX001 (ip), vehicle: saline 91 % of control

Cc1ccc(C2(O)CC3CCC2(c2ccc(C)cc2)C3)cc1 (centres undefined)
inactive: dose: 50.0 mg/kg/injection, schedule: Q01DX001 (ip), vehicle: carboxymethylcellulose (CMC) 95 % of control | dose: 100.0 mg/kg/injection, schedule: Q01DX001 (ip), vehicle: carboxymethylcellulose (CMC) 101 % of control | dose: 200.0 mg/kg/injection, schedule: Q01DX001 (ip), vehicle: carboxymethylcellulose (CMC) 98 % of control | dose: 400.0 mg/kg/injection, schedule: Q01DX001 (ip), vehicle: carboxymethylcellulose (CMC) 98 % of control

C/C(=N/N(C)C)c1ccc(C)cc1
inactive: [5] 93 % of control | [1] 91 % of control | [6] 97 % of control | [7] 105 % of control

CC(C)=CC(=O)OCC[N+](C)(C)C
inactive: dose: 3.12 mg/kg/injection, schedule: Q01DX009 (ip), vehicle: saline 104 % of control | dose: 6.25 mg/kg/injection, schedule: Q01DX009 (ip), vehicle: saline 98 % of control | dose: 12.5 mg/kg/injection, schedule: Q01DX009 (ip), vehicle: saline 102 % of control and 109 % of control

COc1ccc(C(=O)O)c(O)c1O
inactive: dose: 100.0 mg/kg/injection, schedule: Q01DX009 (ip), vehicle: saline with Tween-80 102 % of control | dose: 200.0 mg/kg/injection, schedule: Q01DX009 (ip), vehicle: saline with Tween-80 104 % of control | dose: 400.0 mg/kg/injection, schedule: Q01DX009 (ip), vehicle: saline with Tween-80 101 % of control

Cc1cc(=O)c2cc(N(C)C)ccc2[nH]1
inactive: dose: 100.0 mg/kg/injection, schedule: Q01DX009 (ip), vehicle: water 100 % of control | dose: 100.0 mg/kg/injection, schedule: Q04DX003 (ip), vehicle: water 115 % of control | dose: 200.0 mg/kg/injection, schedule: Q01DX009 (ip), vehicle: water 105 % of control | dose: 200.0 mg/kg/injection, schedule: Q04DX003 (ip), vehicle: water 116 % of control | dose: 400.0 mg/kg/injection, schedule: Q01DX009 (ip), vehicle: water 104 % of control | dose: 400.0 mg/kg/injection, schedule: Q04DX003 (ip), vehicle: water 116 % of control

c1ccc(CSn2cnc3nc4ccccc4c-3c2)cc1
inactive: dose: 100.0 mg/kg/injection, schedule: Q04DX003 (ip), vehicle: gum acacia 91 % of control | dose: 200.0 mg/kg/injection, schedule: Q04DX003 (ip), vehicle: gum acacia 91 % of control | dose: 400.0 mg/kg/injection, schedule: Q04DX003 (ip), vehicle: gum acacia 91 % of control
